The values that follow come from US20240180931A1, “CANNABINOIDS AND USES THEREOF IN TREATMENT OF A DISEASE” (TECHNION RESEARCH & DEVELOPMENT FOUNDATION LIMITED, priority 2021, published 2024).

Experiment [1] deals with 1 cm^2 whole-thickness dorsal wounds. The experiment can be described thus: whole-thickness dorsal wound healing and regeneration in mice. In kind it is in vivo. Particulars: for wound healing by single cannabinoids, compared with WW strain: IP every second day, CBG 0.11 mg/kg, THC 3.7 mg/kg (FIGS. 10B-10C). The procedure:
To this end, 1 cm^2 whole-thickness dorsal wounds were inflicted on male or female 8-week-old wildtype (WT; C57BL/6J background) mice (n=at least 3 mice per group) and the wounded mice were treated with 5 mg/kg of each strain via intraperitoneal (IP) injection every two days (FIG. 9D). Dorsal wound coverage was measured by determining wound size (%) relative to the initial wound size.
Next, the inventors sought to understand whether any single cannabinoid component of the WW strain could potentiate the WW-induced phenotypes (FIG. 10A). For this, male and female mice (8-weeks-old) on WT (wild type; C57BL/6J) background were administered IP injections of cannabigerol (CBG; 0.11 mg/kg), tetrahydrocannabinol (THC; 3.7 mg/kg), cannabinol (CBN; 0.155 mg/kg), or cannabichromene (CBC; 0.0375 mg/kg), and dorsal wound was inflicted (n=at least 3 mice per group). Cannabinoid solutions are prepared by dissolving pure cannabinoids in 100% ethanol (EtOH) to a stock concentration of 100 mg/ml. Further dilution was achieved by preparing a 1:1:18 working solution of 100% EtOH:Cremophor:1×PBS. 100 μl was administered via IP injection to each mouse every second day starting from the day of wound infliction.

Experiment [2] deals with 5%-Imiquimod (IMQ) model of psoriasis. The experiment can be described thus: topical 5%-Imiquimod (IMQ) model of psoriasis in mice. Type of experiment: in vivo. The procedure: The therapeutic potentials of five different cannabis strains were determined (namely, Infinity (INF), White Widow (WW), Cannatonic (CNT), Dance Hall (DH), and Green Crack (GC)), utilizing an in vivo setting of skin pathology. For this aim, the topical 5%-Imiquimod (IMQ) model of psoriasis (FIGS. 1A-1B) was employed. In this model, 62.5 mg of IMQ cream is applied topically on depilated dorsal skins of mice (Fits et al., 2009) every second day concurrent with administration of extracts. Extracts were administered at 5 mg/kg dose via intraperitoneal (i.p.) injection.
Examining the cannabinoid constituents of INF, the inventors next applied IMQ and treated mice with either control (vehicle only), the 5 mg/kg INF extract, 1.6 mg/kg CBN, 0.1 mg/kg CBG, 3.7 mg/kg THC, or 0.04 mg/kg CBC (FIG. 3A).
Further, the recruitment of CD3^+ T cells to the epidermis was examined in 5% IMQ-treated skins.

Experiment [3] concerns pCREB^S133 / ATF1 / PCNA in HaCaT cells. Briefly: western blot analysis of treated HaCaT cells (pCREB, ATF1, PCNA). Type of experiment: cell-based, human. As to conditions: for levels of active pCREB^S133 or ATF1 (western blot): HaCaT treated cells (FIG. 11B). The protocol: (§1) In order to examine the underlying mechanism, the inventors next examined whether increased repair and proliferation is facilitated via the CAMP response element binding protein (CREB). First, the inventors utilized human keratinocyte cells (HaCaT). Cells were starved (serum-free) for 16 hours and then administered with Dimethyl sulfoxide (DMSO; carrier/solvent control), White Widow (WW) extract or cannabigerol (CBG). Next, the inventors performed immunofluorescence for activated phosphorylated CREB using specific antibodies.
In order to verify these findings, the inventors next performed western blot analysis of treated cells (as outlined above).

Experiment [4] relates to NF-kappa-B (p65; NF-κB) transcription factor. Briefly: TNF-α-induced NF-κB (p65) translocation in HaCaT keratinocytes, immunofluorescence. Particulars: 30 minutes; for translocation of NF-kappa-B (p65) to the nucleus: serum starved 16 hours, extract 1 μg/ml, cannabinoids 10 μM (FIG. 4A). In kind it is cell-based, Human. The procedure:
In order to examine the underlying mechanism, the inventors next examined whether improving health of the epidermis in psoriasis is dependent upon the NF-kappa-B (p65; NF-κB) transcription factor. NF-κB transcription factor is known to be active in psoriasis and high expression of its target genes leads to enhanced proliferation and inflammation (Goldminz et al., 2012). Human keratinocyte cells (HaCaT) were utilized. Cells were serum starved for 16 hours and then either non-treated (NTC) or administered with TNF-α along with either DMSO (Ctrl), Infinity (INF) extract, CBN, CBG, or THC at a concentration according to Table 2. Immunofluorescence was next performed for activated NF-κB using specific antibodies. The present data clearly indicate that, in response to TNF-α, the NF-κB (p65) transcription factor translocated to the nucleus.

For experiment [5], the system named is NF-kappa-B (p65; NF-κB) signaling. The experiment can be described thus: TNF-α-induced NF-κB (p65) translocation in Blimp1+ sebocytes, immunofluorescence. In kind it is cell-based, mouse. As to conditions: serum starved 16 hours, TNF-α (FIGS. 8A-8B). The protocol: In order to examine the underlying mechanism, the inventors assessed the effects of INF, THC and CBN in acne and whether it is mediated through downregulation of NF-kappa-B (p65; NF-κB) signaling. NFκB transcription factor is known to be active in acne and high expression of its target genes leads to enhanced proliferation and inflammation (Kang et al., 2005). The inventors utilized mouse primary sebaceous gland progenitors (Blimp1^+ sebocytes). Cells were serum starved for 16 hours and then either non-treated (NTC) or administered with TNF-α along with either DMSO (Ctrl), Infinity (INF) extract, CBN or THC (FIGS. 8A-8B). The inventors next performed immunofluorescence for activated NF-κB using specific antibodies. The present data clearly indicate that in response to TNF-α the NF-κB (p65) transcription factor translocates to the nucleus in Blimp1^+ sebocytes.

In a further experiment the test system is CREB. The experiment can be described thus: CREB phosphorylation in healing wounds in vivo, immunofluorescence. Also on record: species or system mice. From the text:
Thereafter, the inventors examined whether CREB is phosphorylated in healing wounds. The inventors performed full-thickness excisional wounds (as described above) and harvested wounds at 8 days post wound infliction.

Experiment [6] deals with cAMP response element binding protein (CREB). Briefly: CREB phosphorylation in HaCaT keratinocytes, immunofluorescence. Type of experiment: cell-based, human. Particulars: serum-free 16 hours, 30 minutes post-stimulation, WW 1 μg/ml, CBG 10 μM (FIG. 11A). The procedure:
as §1

Experiment [7] deals with tail skin sebaceous glands (SGs). The experiment can be described thus: DBL-induced acne in mouse tail skin in vivo. On the set-up: species or system mice. Particulars: DBL intradermal at tail base every second day for 10 days, treated from day 4; 5 mg/kg INF extract, 1.6 mg/kg CBN.
The mark [8] stands for this setting: IMQ-treated mice, 5 mg/kg INF extract, 3.7 mg/kg THC (FIGS. 3B-3D).

For `CCCCCc1cc(O)c2c(c1)OC(C)(C)[C@@H]1CCC(C)=C[C@@H]21` [THC, tetrahydrocannabinol], in experiment [1], the “wound healing by single cannabinoids, compared with WW strain” value is on record as “to some extent”. In experiment [2] (setting [8]), the “decreasing abnormal levels of proliferation” value is on record as “comparable” and the “prevention of overgrowth of the epidermis” value is reported as “comparable”. In addition, the “levels of active pCREB^S133 or ATF1 (western blot)” value (shortened to “levels of active pCREB^S133 or ATF1”) in experiment [3] is recorded as “only minimal (if any) effect”. In addition, the “translocation of NF-kappa-B (p65) to the nucleus” value (shortened to “translocation of NF-kappa-B (p65)”) in experiment [4] is “strongly inhibited”. For the same molecule, the “translocation of NFκB (p65) to the nucleus” value in experiment [5] is given as “strongly inhibited”.

As to `CCCCCc1cc(O)c(C/C=C(\C)CCC=C(C)C)c(O)c1` [CBG, cannabigerol], the “epidermal invaginations in treated skins, 8 days post wounding” value in experiment [1] (CBG 0.11 mg/kg IP every second day (FIG. 10D)) is reported as “considerably more epidermal invaginations”. In addition, in experiment [1] (CBG 0.11 mg/kg IP every second day (FIGS. 10E-10F)), the “regenerated hair follicles in wounds, 18 days” value was “striking number of regenerated hair follicles”. In addition, in experiment [1], the “wound healing by single cannabinoids, compared with WW strain” value was “healed comparably to the WW strain”. In addition, the “levels of active pCREB^S133 or ATF1” value in experiment [3] is “high phosphorylation of CREB and ATF”. Further, in experiment [3] (HaCaT treated cells (FIG. 11C)), the “proliferation as indicated by the proliferation marker PCNA” value is “increased proliferation”. Also, in the experiment on CREB (CBG-treated wounds (FIG. 11F)), the “localisation of activated p-CREB in treated wounds” value is given as “co-expressed with proliferative markers”. Further, the “activated pCREB^S133 in the epidermis adjacent to the wound” value with CREB (full-thickness excisional wounds, 8 days post wound infliction (FIGS. 11D-11E)) is “dramatic increase”. In addition, in experiment [4], the “translocation of NF-kappa-B (p65)” value was “had no effect”. The “CREB phosphorylation (pCREB^S133) and translocation to the nucleus” value in experiment [6] was “highly phosphorylated”.

Take `CCCCCc1cc(O)c2c(c1)OC(C)(C)c1ccc(C)cc1-2` [CBN, cannabinol]: in experiment [7], the SG cell hyperproliferation result was “prevented” and the sebum over-production result was “prevented”. Further, the “recruitment of CD3+ T cells to the epidermis” value in experiment [2] (5% IMQ-treated skins, harvested 8 days post administration (FIG. 5)) is on record as “substantially reduced”. For the same molecule, the “levels of active pCREB^S133 or ATF1” value in experiment [3] is recorded as “only minimal (if any) effect”. The “inhibition of NF-κB (p65) translocation, comparison between treatments (% nuclear NF-κB positive cells)” value in experiment [4] (10 μM (FIG. 4B)) is “best results of inhibition”. Further, in experiment [4], the “translocation of NF-kappa-B (p65)” value is reported as “strongly inhibited”. For the same molecule, the “translocation of NFκB (p65) to the nucleus” value in experiment [5] is recorded as “strongly inhibited”.

On to `CCCCCc1cc(O)c2c(c1)OC(C)(CCC=C(C)C)C=C2` (centres unmarked) [CBC, cannabichromene], for which the “levels of active pCREB^S133 or ATF1” value in experiment [3] is reported as “only minimal (if any) effect”.
